Experimental data as given in US7214696B2, “Compositions and methods for stabilizing transthyretin and inhibiting transthyretin misfolding” (The Scripps Research Institute, priority 2002, dated 2007).
Read-outs that look alike come from different tables or passages of the source.

Key:
[1] = molecular target: wt transthyretin tetramer (Homo sapiens, UniProt P02766); test: TTR tetramer dissociation in 6 M urea, Example 5; conditions: TTR 1.8 μM, inhibitor 3.6 μM
Description: An inhibitor's ability to do this is most rigorously tested by measuring its efficacy at slowing tetramer dissociation in 6 M urea, a severe denaturation stress. Thus, the rates of TTR tetramer dissociation in 6 M urea in the presence and absence of 20, 21 or 27 were compared (FIG. 9).

[2] = molecular target: T1, TTR in human blood plasma (Homo sapiens, UniProt P02766); test: Immunoprecipitation/HPLC binding stoichiometry of PCBs and OH-PCBs in plasma, Example 4; design: from tissue; host or cells: human blood plasma from healthy volunteers; conditions: post-wash lower limit; for Equivalents Bound (Plasma): OH-PCB 10.8 μM in human blood plasma
TTR in whole blood = molecular target: T2, TTR in whole blood (Homo sapiens, UniProt P02766); test: Binding stoichiometry of OH-PCBs in whole blood, Example 4
T2 construct: Whole blood was drawn from healthy volunteers; from tissue; host or cells: human whole blood from healthy volunteers
Description: Up to two PCBs can bind to the two identical thyroid hormone binding sites in a TTR tetramer. […] Several of the hydroxylated PCBs (e.g., 16 and 22) approach a binding stoichiometry of 2.

WT TTR [3] = molecular target: T3, WT TTR (Homo sapiens, UniProt P02766); test: Stagnant acid-mediated fibril formation assay (turbidity, pH 4.4, 72 h), Example 2; conditions: 3.6 TM TTR, 37° C.
Procedure: Each compound was subjected to a stagnant fibril formation assay. […] The mixture was vortexed and incubated for 30 min (25° C.), at which time the pH was lowered to 4.4 with 500 TL of 200 mM acetate, 100 mM KCl and 1 mM EDTA (pH 4.2). The final 1 mL solution was vortexed and incubated for 72 h at 37° C. without agitation. After 72 h, the cuvettes were vortexed to suspend any fibrils present, and the turbidity of the suspension was measured at 350 and 400 nm using a UV-vis spectrometer. […] All assays were performed in triplicate and all compounds were assayed using wild-type TTR.
After incubation of each mixture for 72 h (37° C.), the turbidity was measured at 350 and 400 nm using a UV-vis spectrometer. All amyloid fibril formation data was normalized to WT TTR amyloidogenesis in the absence of inhibitor, assigned to be 100% fibril formation.

V30M TTR = molecular target: T4, V30M TTR (Homo sapiens, UniProt P02766, V50M); test: Acid-mediated amyloidogenesis of TTR variant V30M, Example 3; format: biochemical
T4 construct: made in house; host or cells: Escherichia coli BL21/DE3 Epicurian gold, pmmHα plasmid
Procedure: (§1) Recombinant WT TTR and variants were expressed in BL21/DE3 Epicurian gold Escherichia coli (Stratagene) transformed with the pmmHα plasmid containing the TTR and ampicillin-resistance genes. Expression and purification were performed as described previously (Lashuel et al., Biochemistry 1999; 38: 13560–73).
(§2) Fibril formation assay was carried out as follows. A recombinant TTR stock solution (7.2 μM) was diluted 1:1 with 100 mM acidification buffer. Citrate buffer was used when a final pH of ≦3.8 was desired; acetate buffer was employed when the pH range under evaluation was 4.2–6.0, and phosphate buffer was utilized for evaluating amyloidogenesis at pH 6.5. Samples were incubated at 37° C. for 72 h without stirring after acidification. The extent of fibril formation was probed by turbidity measurements at […].
(§3) More than 80 TTR mutations predispose individuals to hereditary amyloidosis by sequence dependent alterations of the denaturation energy landscape.

[4] = Serum chemistry and side effects in healthy volunteers given diflunisal, Example 3; format: in vivo, human
Description: (§4) Thirty healthy volunteers (25 male, 5 female) were enrolled after informed consent was given. The subjects ranged from 23 to 53 years of age (mean age, 37.6±8.8) with a mean body weight of 78.0±12.1 kg. […] This study design was approved by the Human Subjects Committee of Scripps Clinic, Scripps Green Hospital, The Scripps Research Institute, and The Scripps General Clinical Research Center.

[5] = Serum diflunisal levels in healthy volunteers (HPLC), Example 3; format: in vivo; conditions: both sexes, human, oral
Procedure: as §4
Serum diflunisal levels were measured. One hundred μL of serum was added to 900 μL of acetonitrile to precipitate the proteins. Following centrifugation, 100 μL of supernatant was added to 900 μL of 100 mM aqueous triethylamine, pH 11.5. After filtration, 100 μL of each sample was injected on a Keystone 3-cm C18 reverse-phase column using a 40–100% gradient of solution B over 10 min (solution A: 94.8% water/5% acetonitrile/0.2% trifluoroacetic acid; solution B: 94.8% acetonitrile/5% water/0.2% trifluoroacetic acid), controlled by a Waters 600E multisolvent delivery system.

V122I TTR = molecular target: T5, V122I TTR (Homo sapiens, UniProt P02766, V142I); test: Acid-mediated amyloidogenesis of TTR variant V122I, Example 3; format: biochemical
T5 construct: made in house; host or cells: Escherichia coli BL21/DE3 Epicurian gold, pmmHα plasmid
Procedure: as §1, §2, §3

serum TTR = molecular target: T6, serum TTR (Homo sapiens, UniProt P02766); test: Serum TTR tetramer stability against urea or acid denaturation (glutaraldehyde cross-linking, immunoblot), Example 3; format: in vivo; conditions: whole serum of dosed subjects, urea (0–9 M) or acid (pH 3.8–5.4)
T6 construct: from tissue; host or cells: serum of healthy human volunteers dosed orally with diflunisal
Procedure: Serum TTR tetramer stability towards urea denaturation was evaluated. Ten μL samples of serum were incubated (25° C.) in 90 μL of various concentrations of urea in 50 mM phosphate buffer (pH 7.0; 100 mM KCl, 1 mM EDTA, 1 mM DTT). Urea solutions were checked by refractive index to verify the concentrations prepared by weight. Glutaraldehyde cross-linking of the protein was performed by adding 10 μL of glutaraldehyde (25%). The cross-linking reaction was allowed to proceed for 4 min before it was quenched by the addition of 10 μL of NaBH4 (7% in 0.1 M NaOH). The samples were mixed with 120 μL of SDS reducing gel loading cocktail (final SDS concentration=2.5%) and boiled for 5 min.
Serum TTR tetramer stability against acid denaturation was evaluated. Ten μL samples of serum were incubated (37° C.) in 90 μL of 100 mM acidification buffer. Citrate buffer was used when a final pH of ≦3.8 was desired; acetate buffer was employed when the pH range under evaluation was 4.2–5.4. After cross-linking, samples were analyzed by SDS-PAGE and immunoblotting as described above.
Whole serum from the subjects was subjected to denaturation either by adding urea (0–9 M) or by adding acid (pH 3.8–5.4). […] Immunoblotting enables quantitative comparisons of the amount of folded TTR.

TTR [6] = molecular target: T7, TTR (Homo sapiens, UniProt P02766); test: Rate of urea-mediated (6.5 M) TTR tetramer dissociation by CD, Example 3; format: biochemical; design: made in house; host or cells: Escherichia coli BL21/DE3 Epicurian gold, pmmHα plasmid; conditions: 6.5 M urea; diflunisal 5, 10, 20 and 60 μM
Procedure: Rate of TTR tetramer dissociation was measured by circular dichroism spectroscopy. The evaluation of tetramer dissociation rates was carried out using recombinant TTR (3.6 μM) samples in 6.5 M urea, a concentration in the post-transition region for tertiary structural change (Hammarstrom et al., Proc Natl Acad Sci USA 2002; 99: 16427–32). The far-UV CD spectra of TTR (210–220 nm) as a function of time was measured to evaluate the slow tetramer dissociation rate by linking it to fast tertiary structural changes.

[7] = cited from earlier work
TTR [8] = molecular target: T7, TTR; test: Rate of acid-mediated (pH 4.4) amyloid fibril formation, Example 3; format: biochemical; design: made in house; host or cells: Escherichia coli BL21/DE3 Epicurian gold, pmmHα plasmid; conditions: diflunisal 5, 10, 20 and 60 μM
Procedure: as §2

TTR in human serum = TTR in human serum (Homo sapiens, UniProt P02766); conditions: diflunisal 100 μM in serum
Procedure: A 1:1 gel/10 mM Tris.HCl, pH 8.0/140 mM NaCl/0.025% NaN3(TSA) slurry (62.5 μL) of Sepharose was added to 500 μL of serum and incubated at 4° C. for 1 h. Following centrifugation, 400 μL of supernatant was added to 200 μL of a 1:1 gel/TSA slurry of the anti-TTR antibody-conjugated Sepharose and slowly rocked at 4° C. for 20 min. After centrifugation, the gel was washed with 1 mL of TSA/0.05% saponin (Fisher Scientific) (twice, 10 min each), and additionally with 1 mL of TSA (once, 10 min) at 4° C. […] After gentle rocking at 4° C. for 30 min, the sample was centrifuged and 145 μL of the supernatant was removed.

WT TTR tetramer = WT TTR tetramer (Homo sapiens, UniProt P02766); test: WT TTR tetramer dissociation rate in 6 M urea, Example 1; format: biochemical; conditions: TTR 1.8 μM
Procedure: Tetramer dissociation rates were measured by linking slow quaternary structural changes to the unfolding transition, with a rate of 5×10^5 times that of dissociation (Hammarström et al., Proc. Natl. Acad. Sci. U.S.A. 99, 16427 (2002)). Denaturation-detected dissociation is irreversible because the concentration of urea used (>6.0 M) cannot support refolding.

[9] = molecular target: T1, TTR in human blood plasma; format: binding; design: from tissue; host or cells: human blood plasma from healthy volunteers; conditions: test compound 10.8 μM, 24 h, 37° C.
Procedure: Human blood plasma (TTR conc. 3.6–5.4 μM) was incubated for 24 h with the test compound (10.8 μM) at 37° C. The TTR and any bound inhibitor were immunoprecipitated using a sepharose-bound polyclonal TTR antibody. The TTR with or without inhibitor bound was liberated from the resin at high pH, and the inhibitor:TTR stoichiometry was ascertained by HPLC analysis (FIG. 8).

WT TTR [10] = molecular target: T3, WT TTR; test: Transthyretin amyloid fibril formation assay (pH 4.4, 72 h, OD 400 nm), Example 4; format: biochemical; conditions: equimolar inhibitor and TTR concentration (3.6 μM)
Procedure: TTR secreted into blood from the liver appears to be the source of systemic TTR amyloid. While it is not yet clear where or how amyloid is formed in humans, the typical denaturant in cells is acid, which is effective in converting nearly all amyloidogenic peptides and proteins into amyloid and/or related aggregates. […] Hydroxylated PCBs and PCB 3 were highly efficacious as TTR fibril inhibitors. At an inhibitor concentration equal to the WT TTR concentration (3.6 μM), only 12–50% of the normal amount of fibril formation was observed after a 72 h incubation period.
The compounds were dissolved in DMSO at a concentration of 720 μM. Five μL of a solution of the compound being evaluated was added to 0.5 mL of a 7.2 μM TTR solution in 10 mM phosphate pH 7.6, 100 mM KCl, 1 mM EDTA buffer, allowing the compound to incubate with TTR for 30 min. 495 μL of […] acetate pH 4.2, 100 mM KCl, 1 mM EDTA was added, to yield final protein and inhibitor concentrations of 3.6 μM each and a pH of 4.4. The mixture was then incubated at 37° C. for 72 h, after which the tubes were vortexed for 3 sec and the optical density was measured at 400 nm. The extent of fibril formation was determined by normalizing each optical density by that of TTR without inhibitor, defined to be 100% fibril formation. Control solutions of each compound in the absence of TTR were also tested and none absorbed appreciably at 400 nm.

TTR tetramer = TTR tetramer (Homo sapiens, UniProt P02766); test: Tetramer dissociation in 6 M urea, Example 4; format: biochemical
Description: In addition to their high binding selectivity to plasma TTR, the OH-PCBs and PCB 3 also display excellent inhibition of TTR fibril formation in vitro. […] This is likely attributable to their high binding affinity (also consistent with their low off rate) and their non- or positively cooperative TTR binding properties which are unusual. […] Ground state stabilization raises the tetramer dissociation barrier (rate limiting step in TTR amyloidogenesis) substantially, such that the tetramer cannot dissociate on a biologically relevant timescale. […] OH-PCB 18 (3.6 μM) is believed to be an impressive amyloid inhibitor because it is an excellent kinetic stabilizer of tetrameric TTR, i.e. it prevents ⅔ of a 3.6 μM TTR sample from being amyloidogenic at pH 4.4 because TTR•18 and TTR•182 are incompetent to form amyloid, the remainder of TTR (1.18 μM) forms amyloid very inefficiently because of its low concentration. The dissociation rates of the best OH-PCB inhibitors may also be slower than expected because of TTR structural annealing around the OH-PCB, but this has not yet been evaluated as carefully as required.

O=C(O)c1ccc2nc(-c3ccccc3)oc2c1 [Compound 21]
effect on dissociation of TTR [1]: did not hinder the dissociation of TTR at all | Equivalents Bound (Plasma) [2]: 1.40 ± 0.22 | Equivalents Bound (Blood) (TTR in whole blood): 1.33

O=C(O)c1cc(-c2ccc(F)cc2F)ccc1O [diflunisal]
reduction of TTR amyloidogenesis (WT TTR [3]; 3.6 TM diflunisal): 63% | reduction of TTR amyloidogenesis (WT TTR [3]; 7.2 TM diflunisal): 97% | inhibition of V30M amyloidogenesis (V30M TTR): inhibits both V122I and V30M amyloidogenesis in a dose dependent fashion | level of BUN ([4]; 250 mg bid group): increased slightly | serum level of albumin ([4]; 250 mg bid group): decreased moderately | level of BUN ([4]; 500 mg bid group): increased slightly | level of creatinine ([4]; 500 mg bid group): increased slightly | serum level of albumin ([4]; 500 mg bid group): decreased significantly | side effects ([4]; 125, 250 or 500 mg bid for 7 days, during or after the study): No obvious side effects were observed | concentration at 4 h after the 13th dose (day 8) ([5]; 125 mg twice a day, 125 mg bid): 20.1 ± 7.1 µM | concentration at 12 h after the 13th dose (day 8) ([5]; 125 mg twice a day, 125 mg bid): 6.9 ± 3 µM | concentration at 4 h after the 13th dose (day 8) ([5]; 250 mg twice a day, 250 mg bid): 234 ± 76 µM | concentration at 12 h after the 13th dose (day 8) ([5]; 250 mg twice a day, 250 mg bid): 146 ± 38.9 µM | concentration at 4 h after the 13th dose (day 8) ([5]; 500 mg twice a day, 500 mg bid): 517 ± 79.5 µM | concentration at 12 h after the 13th dose (day 8) ([5]; 500 mg twice a day, 500 mg bid): 422 ± 78.1 µM | inhibition of V122I amyloidogenesis (V122I TTR): inhibits both V122I and V30M amyloidogenesis in a dose dependent fashion | stability of serum TTR against denaturation (serum TTR): stabilizes serum TTR against denaturation stresses | rate of urea-mediated dissociation (TTR [6]): dose dependent slowing | diflunisal concentration in blood ([7]; 4 h after a single 500 mg dose): > 300 µM | diflunisal concentration in blood ([7]; 20 h after a single 500 mg dose): exceed 30 μM | blood-brain barrier penetration ([7]; in vivo): cannot cross the blood-brain barrier | half-life ([7]; in vivo): 8 to 10 h | sustained plasma concentration ([7]; orally administered, 250 mg twice daily): exceeding 100 TM | protein bound ([7]; serum): Greater than 99% | rate of acid mediated amyloid fibril formation (TTR [8]): dose dependent slowing | binding stoichiometry in subjects (TTR in human serum): 0.8–1

O=C(O)c1cccc2oc(-c3ccccc3)nc12 [Compound 7]
protection of the tetramer from dissociation in 6 M urea by T·I and T·I2 (WT TTR tetramer): prevented tetramer dissociation in 6 M urea | Equivalents Bound ([2]; PCB 10.8 μM in human blood plasma, TTR ≈5 μM): No Binding

3′,5′-Difluorobiphenyl-4-carboxylic acid [Compound 18]
inhibitor:TTR binding stoichiometry in human blood plasma [9]: displayed the highest binding stoichiometries | efficacy as fibril inhibitor (WT TTR [10]): among the highest observed to date | Equivalents Bound (Plasma) [2]: 1.36 ± 0.21 | tetramer dissociation in 6 M urea (TTR tetramer): dramatically slowed tetramer dissociation in 6 M urea
